Laboratory results taken from ChEMBL document CHEMBL1201862, “PubChem BioAssay data set” (2004).
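Test compounds were applied to cells in 96-well plates for 48 hours at 5 doses. GI50 marks 50% less growth.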 Calls of active or inactive are those of the source. Cut-off read from the data, not from the text of the source: active = GI50 up to about 1.1 µM and inactive = higher.

Legend:
Assay in all cases: DTP human tumour cell line panel, 48 h
PC-3 = system: PC-3
SN12C = system: SN12C
UACC-257 = system: UACC-257
A498 = system: A498
HT-29 = system: HT-29
SW-620 = system: SW-620
NCI/ADR-RES = system: NCI/ADR-RES
K562 = system: K562
COLO 205 = system: COLO 205
OVCAR-8 = system: OVCAR-8
TK-10 = system: TK-10
HOP-62 = system: HOP-62
NCI-H226 = system: NCI-H226
UO-31 = system: UO-31
LOX IMVI = system: LOX IMVI
SK-MEL-5 = system: SK-MEL-5
SK-MEL-2 = system: SK-MEL-2
SK-OV-3 = system: SK-OV-3
ACHN = system: ACHN
HOP-92 = system: HOP-92

SMILES | GI50 (PC-3) | GI50 (SN12C) | GI50 (UACC-257) | GI50 (A498) | GI50 (HT-29) | GI50 (SW-620) | GI50 (NCI/ADR-RES) | GI50 (K562) | GI50 (COLO 205) | GI50 (OVCAR-8) | GI50 (TK-10) | GI50 (HOP-62) | GI50 (NCI-H226) | GI50 (UO-31) | GI50 (LOX IMVI) | GI50 (SK-MEL-5) | GI50 (SK-MEL-2) | GI50 (SK-OV-3) | GI50 (ACHN) | GI50 (HOP-92)
O=C(O)CCn1cnc2c(S)ncnc21 | > 100 µM (inactive) | > 100 µM (inactive) | > 100 µM (inactive) | > 100 µM (inactive) | > 100 µM (inactive) | > 100 µM (inactive) | > 100 µM (inactive) | > 100 µM (inactive) | > 100 µM (inactive) | > 100 µM (inactive) | > 100 µM (inactive) | > 100 µM (inactive) | > 100 µM (inactive) | > 100 µM (inactive) | > 100 µM (inactive) | > 100 µM (inactive) | > 100 µM (inactive) | > 100 µM (inactive) | > 100 µM (inactive) | –
N#Cc1nn(C2OC(COC(=O)c3ccccc3)C(OC(=O)c3ccccc3)C2OC(=O)c2ccccc2)c2nc[nH]c(=O)c12 (configuration not stated) | 45.4 µM (inactive) | 77.4 µM (inactive) | > 100 µM (inactive) | 11.4 µM (inactive) | 36.2 µM (inactive) | 63.1 µM (inactive) | 66.4 µM (inactive) | 35.7 µM (inactive) | 27.4 µM (inactive) | 27.8 µM (inactive) | > 100 µM (inactive) | 90.2 µM (inactive) | > 100 µM (inactive) | 56.2 µM (inactive) | – | 25.6 µM (inactive) | 85.5 µM (inactive) | 5.57 µM (inactive) | 44.3 µM (inactive) | –
C=C(C)COC1CCCCO1 (configuration not stated) | > 100 µM (inactive) | > 100 µM (inactive) | > 100 µM (inactive) | > 100 µM (inactive) | > 100 µM (inactive) | > 100 µM (inactive) | > 100 µM (inactive) | 41.6 µM (inactive) | > 100 µM (inactive) | > 100 µM (inactive) | > 100 µM (inactive) | > 100 µM (inactive) | > 100 µM (inactive) | > 100 µM (inactive) | > 100 µM (inactive) | > 100 µM (inactive) | > 100 µM (inactive) | > 100 µM (inactive) | > 100 µM (inactive) | –
Nc1ccc(S(=O)(=O)C23CC4CC(CC(C4)C2)C3)cc1 | 51.5 µM (inactive) | > 100 µM (inactive) | > 100 µM (inactive) | 23.1 µM (inactive) | > 100 µM (inactive) | > 100 µM (inactive) | > 100 µM (inactive) | 89.5 µM (inactive) | 74.1 µM (inactive) | > 100 µM (inactive) | > 100 µM (inactive) | > 100 µM (inactive) | > 100 µM (inactive) | > 100 µM (inactive) | 70.8 µM (inactive) | 4.49 µM (inactive) | > 100 µM (inactive) | > 100 µM (inactive) | > 100 µM (inactive) | –
COC1=CC(=O)c2c(O)ccc(O)c2C1=O | 18.5 µM (inactive) | 2.65 µM (inactive) | 1.52 µM (inactive) | 17.8 µM (inactive) | 1.72 µM (inactive) | 3.85 µM (inactive) | 19.8 µM (inactive) | 6.68 µM (inactive) | 1.5 µM (inactive) | 21.4 µM (inactive) | 14.7 µM (inactive) | 2.19 µM (inactive) | 21.6 µM (inactive) | 17.3 µM (inactive) | – | 0.851 µM (active) | – | 18.6 µM (inactive) | 16.5 µM (inactive) | 18.6 µM (inactive)
CC(=O)OC(Cc1c(O)c2c(C)cccc2oc1=O)C(C)(C)O (configuration not stated) | 51.4 µM (inactive) | > 100 µM (inactive) | > 100 µM (inactive) | > 100 µM (inactive) | > 100 µM (inactive) | > 100 µM (inactive) | 92.3 µM (inactive) | > 100 µM (inactive) | > 100 µM (inactive) | > 100 µM (inactive) | > 100 µM (inactive) | > 100 µM (inactive) | > 100 µM (inactive) | > 100 µM (inactive) | > 100 µM (inactive) | > 100 µM (inactive) | > 100 µM (inactive) | > 100 µM (inactive) | > 100 µM (inactive) | –
